Assay results: paper PMC11555526, “Development of 2-Aminoadenine-Based Proteolysis-Targeting Chimeras (PROTACs) as Novel Potent Degraders of Monopolar Spindle 1 and Aurora Kinases” (ACS Pharmacology & Translational Science, 2024)
“And” between values parts separate entries of the source, which are not always exact repeats. Equal entries are not always repeated. Where two headings read alike, the source gives them in different places.

Legend:
[1] = target: T1, TTK (MV4-11^HiBiT-TTK cells) (Homo sapiens, UniProt P33981); experiment: HiBiT assay, TTK degradation; assay type: cell-based; parameters: key to Dmax (maximal degradation) TTK: compounds with degradation less than 15% reported as “inactive”; conditions: for Dmax (maximal degradation) TTK / DC50 / DC50 (half-maximal degradation concentration) TTK: 6 h treatment, MV4-11^HiBiT-TTK cells; for DC50: read-out: DC50 (half-maximal degradation concentration) TTK
T1 construct: expressed in transfected cells; host or cells: MV4-11, lentiviral transduction (pRRL-PGK-HiBiT entry vector)
T1 sequence (P33981 1-857): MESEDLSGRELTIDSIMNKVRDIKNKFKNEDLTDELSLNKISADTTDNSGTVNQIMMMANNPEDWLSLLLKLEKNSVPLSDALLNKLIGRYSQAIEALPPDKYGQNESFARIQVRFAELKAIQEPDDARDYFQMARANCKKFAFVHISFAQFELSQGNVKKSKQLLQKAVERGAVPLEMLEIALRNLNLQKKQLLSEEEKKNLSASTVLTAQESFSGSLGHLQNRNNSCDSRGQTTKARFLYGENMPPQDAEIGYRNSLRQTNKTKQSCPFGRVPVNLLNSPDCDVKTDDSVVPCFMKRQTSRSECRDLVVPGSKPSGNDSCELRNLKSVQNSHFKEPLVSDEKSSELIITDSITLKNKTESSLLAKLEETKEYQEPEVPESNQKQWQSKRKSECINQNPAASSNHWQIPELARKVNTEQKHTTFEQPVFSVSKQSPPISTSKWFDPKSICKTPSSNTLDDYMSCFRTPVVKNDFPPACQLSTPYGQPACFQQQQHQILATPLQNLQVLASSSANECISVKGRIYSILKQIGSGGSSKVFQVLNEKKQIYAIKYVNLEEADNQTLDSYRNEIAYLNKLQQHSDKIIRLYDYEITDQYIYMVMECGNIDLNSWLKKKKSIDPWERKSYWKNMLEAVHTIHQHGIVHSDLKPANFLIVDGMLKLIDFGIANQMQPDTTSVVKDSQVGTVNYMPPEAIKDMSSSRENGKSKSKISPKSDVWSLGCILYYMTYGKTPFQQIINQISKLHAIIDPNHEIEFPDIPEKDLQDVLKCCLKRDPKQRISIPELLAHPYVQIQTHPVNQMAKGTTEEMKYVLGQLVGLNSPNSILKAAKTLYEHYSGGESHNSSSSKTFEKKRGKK
Experimental: (§1) The effects of the synthesized compounds on AURKA, AURKB, and TTK mitotic kinases were then assessed in cellular systems. For this, HiBiT cell lines were generated for all three mitotic kinases. A small 11 amino acid peptide fragment of luciferase (HiBiT) was fused to the coding sequence of the proteins and stably transduced in the MV4-11 cell line (MV4-11^AURKA-HiBiT, MV4-11^AURKB-HiBiT, and MV4-11^HiBiT-TTK).
(§2) The stable cell lines MV4-11^AURKA-HiBiT, MV4-11^AURKB-HiBiT, and MV4-11^HiBiT-TTK cells were generated by lentiviral infection. Lentivirus was produced using the respective HiBiT vector, plasmids psPAX2, and pMD2.G in HEK293 cells. The virus supernatant was filtered and MV4-11 cells were doubly infected with the supernatant. The cells were selected after 48 h of infection until the control cells were dead to get the stable cell line.
(§3) The cells stably expressing HiBiT-tagged protein were seeded into 96-well plates and treated with serial dilutions of compounds for the indicated time points. At the end point, the assay was performed using the Nano-Glo HiBiT Lytic Detection System (Promega) according to the manufacturer’s instruction. Luminescence was measured on a GloMax 96 Microplate Luminometer (Promega) or a Tecan Spark Multiplate reader (Tecan). DC50 was calculated using concentrations showing sigmoidal behavior with the dose–response (four parameters) equation in Prism (GraphPad).

[2] = target: T2, AURKA (MV4-11^AURKA-HiBiT cells) (Homo sapiens, UniProt O14965); experiment: HiBiT assay, AURKA degradation; assay type: cell-based; conditions: for DC50: read-out: DC50 (half-maximal degradation concentration) AURKA
T2 construct: expressed in transfected cells; host or cells: MV4-11, lentiviral transduction
T2 sequence (O14965 1-403): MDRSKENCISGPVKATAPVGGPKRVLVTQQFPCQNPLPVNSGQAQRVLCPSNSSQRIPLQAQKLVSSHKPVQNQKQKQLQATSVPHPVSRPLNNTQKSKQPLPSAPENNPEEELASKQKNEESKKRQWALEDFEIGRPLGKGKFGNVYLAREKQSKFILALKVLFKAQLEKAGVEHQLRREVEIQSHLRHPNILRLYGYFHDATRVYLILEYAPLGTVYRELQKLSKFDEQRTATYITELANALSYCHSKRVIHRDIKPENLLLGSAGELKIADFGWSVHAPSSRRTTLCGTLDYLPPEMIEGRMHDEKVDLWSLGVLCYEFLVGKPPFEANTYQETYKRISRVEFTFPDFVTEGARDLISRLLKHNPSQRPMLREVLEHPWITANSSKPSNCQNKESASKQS
Experimental: as §1, §2, §3

[3] = target: T3, AURKB (MV4-11^AURKB-HiBiT cells) (Homo sapiens, UniProt Q96GD4); experiment: HiBiT assay, AURKB degradation; assay type: cell-based; parameters: key to Dmax (maximal degradation) AURKB: compounds with degradation less than 15% reported as “inactive”; conditions: 6 h treatment; for DC50: read-out: DC50 (half-maximal degradation concentration) AURKB
T3 construct: expressed in transfected cells; host or cells: MV4-11, lentiviral transduction (pRRL-PGK vector)
T3 sequence (Q96GD4 1-345 isoform Q96GD4-5): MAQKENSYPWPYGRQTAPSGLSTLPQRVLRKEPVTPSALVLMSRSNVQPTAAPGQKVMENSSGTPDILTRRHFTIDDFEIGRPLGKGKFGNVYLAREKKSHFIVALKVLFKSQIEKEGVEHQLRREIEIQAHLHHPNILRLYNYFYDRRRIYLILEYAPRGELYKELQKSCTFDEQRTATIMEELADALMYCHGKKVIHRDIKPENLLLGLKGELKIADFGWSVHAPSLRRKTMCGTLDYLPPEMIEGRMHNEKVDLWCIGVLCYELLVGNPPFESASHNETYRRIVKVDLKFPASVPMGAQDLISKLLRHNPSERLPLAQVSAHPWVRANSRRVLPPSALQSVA
Experimental: as §1, §2, §3

MV4-11 cells (naive) = experiment: alamarBlue cell viability assay; assay type: cell-based, human
Experimental: Finally, to study the effect of the compounds on cancer cell survival, MV4-11 cells were treated with various concentrations of the chimeras and the cell viability was assessed after 72 h. […] As opposed to the parent inhibitor MPS1-IN-3, its derivatives except 40 were not cytotoxic (Figure S7B, Table 5). […] In addition, most of the SF1-based derivatives affected the viability of MV4-11 cells in nanomolar concentrations (Table 5).
For the alamarBlue cell viability assay, cells were seeded in 96-well plates and treated with indicated concentrations of the compounds or vehicle. A few hours before the experimental end point (72 h, unless otherwise stated), the cells were incubated with the alamarBlue reagent. Finally, fluorescence (excitation: 550 nm and emission: 600 nm) or absorbance (570 nm with reference at 600 nm) was measured on a Tecan Spark Multiplate reader (Tecan).

[4] = 6 h treatment, MV4-11^AURKA-HiBiT cells
[5] = 72 h treatment, MV4-11 cells (naive), read-out: EC50 (concentration that decreases cell viability by 50%)
[6] = 72 h, MV4-11 cells, read-out: EC50 cytotoxicity

| SMILES | Dmax (maximal degradation) TTK [1] | DC50 [1] | Dmax (maximal degradation) AURKA [2, 4] | DC50 [2, 4] | Dmax (maximal degradation) AURKB [3] | DC50 [3] | EC50 (MV4-11 cells (naive); [5]) | selectivity of AURKA degradation (DC50) relative to TTK ([2]; HiBiT, 6 h) | fold lower activity (DC50) against TTK in comparison to degrader 19 ([1]; HiBiT, 6 h) | DC50 (half-maximal degradation concentration) TTK [1] | DC50 (half-maximal degradation concentration) AURKB [3] | EC50 (MV4-11 cells (naive); [6]) | EC50 (concentration that decreases cell viability by 50%) (MV4-11 cells (naive); 72 h treatment, MV4-11 cells (naive)) | DC50 (half-maximal degradation concentration) AURKA [2, 4] |
| --- | --- | --- | --- | --- | --- | --- | --- | --- | --- | --- | --- | --- | --- | --- |
| O=C1CCC(N2C(=O)c3cccc(NC(=O)CCCC(=O)N4CCN(c5ccc(Nc6nc(NC7CCCCC7)c7nc[nH]c7n6)cc5)CC4)c3C2=O)C(=O)N1 (stereo not drawn) [Compound 13] | 27.70% | 3 nM | 68.40% | 94 nM | 30.60% | 380 nM | 1210 nM |  |  |  |  |  |  |  |
| CC(C)S(=O)(=O)c1ccccc1Nc1nc(Nc2ccc(N3CCN(C(=O)COCCOCC(=O)Nc4cccc5c4C(=O)N(C4CCC(=O)NC4=O)C5=O)CC3)cc2)nc2[nH]cnc12 (stereo not drawn) [Compound 18] | inactive |  | 62.10% | 1260 nM | 22.20% |  | 1130 nM |  |  | – (compounds with degradation less than 25% were not calculated and reported as “–”) | – (compounds with degradation less than 25% were not calculated and reported as “–”) |  |  |  |
| O=C(CCCC(=O)Nc1cccc2c1C(=O)N(C1CCC(=O)NC1=O)C2=O)NCC(=O)N1CCN(c2ccc(Nc3nc(NC4CCCCC4)c4nc[nH]c4n3)cc2)CC1 (stereo not drawn) [Compound 19] | 67% and 66.50% | 18 nM and 17.7 nM | 78.80% | 109 nM | 43.60% | 570 nM | 1380 nM |  |  |  |  | 1400 nM |  |  |
| COc1cc(N2CCN(C(=O)CNC(=O)CCCC(=O)Nc3cccc4c3C(=O)N(C3CCC(=O)NC3=O)C4=O)CC2)ccc1Nc1nc(Nc2ccccc2S(=O)(=O)C(C)C)c2nc[nH]c2n1 (stereo not drawn) [Compound 21] | 41.90% | 26 nM | 59.30% | 56 nM | inactive |  |  |  |  |  | – (compounds with degradation less than 25% were not calculated and reported as “–”) |  | — (compounds with decrease of cell viability less than 50% were not calculated and reported as “—”) |  |
| CN1C(=O)CCC(N2C(=O)c3cccc(NC(=O)CCCC(=O)NCC(=O)N4CCN(c5ccc(Nc6nc(NC7CCCCC7)c7nc[nH]c7n6)cc5)CC4)c3C2=O)C1=O (stereo not drawn) [Compound 23] | 32.55% | 600 nM | 55.25% | 299 nM | 48.30% | 363 nM | 697 nM |  | 34 fold |  |  | 700 nM |  |  |

The remaining molecules from weak to strong by EC50 (MV4-11 cells (naive); [5]), led by results:

| Dmax (maximal degradation) TTK [1] | DC50 [1] | Dmax (maximal degradation) AURKA [2, 4] | DC50 [2, 4] | Dmax (maximal degradation) AURKB [3] | DC50 [3] | EC50 (MV4-11 cells (naive); [5]) | selectivity of AURKA degradation (DC50) relative to TTK ([2]; HiBiT, 6 h) | fold lower activity (DC50) against TTK in comparison to degrader 19 ([1]; HiBiT, 6 h) | SMILES | DC50 (half-maximal degradation concentration) TTK [1] | DC50 (half-maximal degradation concentration) AURKB [3] | EC50 (MV4-11 cells (naive); [6]) | EC50 (concentration that decreases cell viability by 50%) (MV4-11 cells (naive); 72 h treatment, MV4-11 cells (naive)) | DC50 (half-maximal degradation concentration) AURKA [2, 4] |
| --- | --- | --- | --- | --- | --- | --- | --- | --- | --- | --- | --- | --- | --- | --- |
| 16.95% |  | 17.00% |  | 20.40% |  | 618 nM |  |  | CC(C)S(=O)(=O)c1ccccc1Nc1nc(Nc2ccc(N3CCN(C(=O)CNC(=O)CCCC(=O)Nc4cccc5c4C(=O)N(C4CCC(=O)N(C)C4=O)C5=O)CC3)cc2)nc2[nH]cnc12 (stereo not drawn) [Compound 24] | – (compounds with degradation less than 25% were not calculated and reported as “–”) | – (compounds with degradation less than 25% were not calculated and reported as “–”) |  |  | – (compounds with degradation less than 25% were not calculated and reported as “–”) |
| 39.40% | 66 nM | 68.90% | 239 nM | 36.10% | 598 nM | 506 nM |  |  | O=C1CCC(N2C(=O)c3cccc(NC(=O)COCCOCC(=O)N4CCN(c5ccc(Nc6nc(NC7CCCCC7)c7nc[nH]c7n6)cc5)CC4)c3C2=O)C(=O)N1 (stereo not drawn) [Compound 17] |  |  |  |  |  |
| 59.05% | 84.5 nM | 69.70% | 4.85 nM | 45.95% | 273 nM | 126 nM |  |  | CC(C)S(=O)(=O)c1ccccc1Nc1nc(Nc2ccc(N3CCN(CCCCC(=O)Nc4cccc5c4C(=O)N(C4CCC(=O)NC4=O)C5=O)CC3)cc2)nc2[nH]cnc12 (stereo not drawn) [Compound 28] |  |  |  |  |  |
| 52.95% | 89.1 nM | 75.10% | 4.8 nM | 48.90% | 270 nM | 91 nM |  |  | CC(C)S(=O)(=O)c1ccccc1Nc1nc(Nc2ccc(N3CCN(CCCC(=O)Nc4cccc5c4C(=O)N(C4CCC(=O)NC4=O)C5=O)CC3)cc2)nc2[nH]cnc12 (stereo not drawn) [Compound 27] |  |  |  |  |  |
| 28.90% | 205 nM | 34.80% | 119 nM | 33.40% | 2690 nM | 57 nM |  |  | CC(C)S(=O)(=O)c1ccccc1Nc1nc(Nc2ccc(N3CCN(CC(=O)Nc4cccc5c4C(=O)N(C4CCC(=O)NC4=O)C5=O)CC3)cc2)nc2[nH]cnc12 (stereo not drawn) [Compound 26] |  |  |  |  |  |
| 35.20% | 42 nM | 74.55% | 2.05 nM | 33.15% | 154 nM | 39 nM | 21 fold |  | CC(C)S(=O)(=O)c1ccccc1Nc1nc(Nc2ccc(N3CCN(C(=O)CCC(=O)Nc4cccc5c4C(=O)N(C4CCC(=O)NC4=O)C5=O)CC3)cc2)nc2[nH]cnc12 (stereo not drawn) [Compound 15] |  |  |  |  |  |
